Measured values taken from PubChem BioAssay (NCI).
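GI50 = concentration required for 50% inhibition of growth. TGI denotes the concentration required for complete inhibition of growth.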

How the values were obtained:
Test in all cases: NCI tumour cell line growth inhibition, 384-well format
[1] = tested on: 786-0 renal
[2] = tested on: A498 renal
[3] = tested on: A549 NSCLC
[4] = tested on: BT-549 breast
[5] = tested on: CAKI-1 renal
[6] = tested on: CCRF-CEM leukemia
[7] = tested on: HCC-2998 colon
[8] = tested on: HCT-15 colon
[9] = tested on: HL-60(TB) leukemia
[10] = tested on: HOP-92 NSCLC
[11] = tested on: HT29 colon
[12] = tested on: IGROV1 ovarian
[13] = tested on: K-562 leukemia
[14] = tested on: KM12 colon
[15] = tested on: LOX IMVI melanoma
[16] = tested on: M14 melanoma
[17] = tested on: MALME-3M melanoma
[18] = tested on: MCF7 breast
[19] = tested on: MDA-MB-435 melanoma
[20] = tested on: MDA-MB-468 breast
[21] = tested on: MOLT-4 leukemia
[22] = tested on: NCI-H226 lung
[23] = tested on: NCI-H322M lung
[24] = tested on: NCI-H460 NSCLC
[25] = tested on: NCI-H522 lung
[26] = tested on: OVCAR-4 ovarian
[27] = tested on: OVCAR-5 ovarian
[28] = tested on: OVCAR-8 ovarian
[29] = tested on: PC-3 prostate
[30] = tested on: RPMI-8226 leukemia
[31] = tested on: RXF 393 renal
[32] = tested on: SF-268 CNS
[33] = tested on: SF-295 CNS
[34] = tested on: SF-539 CNS
[35] = tested on: SK-MEL-2 melanoma
[36] = tested on: SK-MEL-28 melanoma
[37] = tested on: SK-MEL-5 melanoma
[38] = tested on: SK-OV-3 ovarian
[39] = tested on: SR leukemia
[40] = tested on: T-47D breast
[41] = tested on: TK-10 renal
[42] = tested on: U251 glioblastoma
[43] = tested on: UACC-257 melanoma
[44] = tested on: UACC-62 melanoma
[45] = tested on: UO-31 renal
[46] = tested on: ACHN renal
[47] = tested on: DU-145 prostate
[48] = tested on: EKVX NSCLC
[49] = tested on: HCT-116 colon
[50] = tested on: HOP-62 NSCLC
[51] = tested on: HS 578T breast
[52] = tested on: MDA-MB-231 breast
[53] = tested on: NCI-H23 lung
[54] = tested on: NCI/ADR-RES ovarian
[55] = tested on: OVCAR-3 ovarian
[56] = tested on: SN12C renal
[57] = tested on: SNB-19 CNS
[58] = tested on: SNB-75 CNS
[59] = tested on: SW-620 colon

Cc1c(Nc2nccc3cc(CN4CC[C@@H](O)C4)cnc23)cccc1-c1cccc(-c2nc3cc(CN4CC[C@@H](C(=O)O)C4)cc(C#N)c3o2)c1C
GI50 [1]: 334 nM | TGI [1]: 1260 nM | GI50 [2]: 391 nM | TGI [2]: 1490 nM | GI50 [3]: 441 nM | TGI [3]: 2970 nM | GI50 [4]: 140 nM | TGI [4]: 532 nM | GI50 [5]: 464 nM | TGI [5]: > 100000 nM | GI50 [6]: 147 nM | TGI [6]: 287 nM | GI50 [7]: 318 nM | TGI [7]: 1250 nM | GI50 [8]: 1530 nM | TGI [8]: 3010 nM | GI50 [9]: 172 nM | TGI [9]: 314 nM | GI50 [10]: 297 nM | TGI [10]: 1970 nM | GI50 [11]: 213 nM | TGI [11]: 496 nM | GI50 [12]: 1070 nM | TGI [12]: > 100000 nM | GI50 [13]: 205 nM | TGI [13]: 567 nM | GI50 [14]: 69.7 nM | TGI [14]: 679 nM | GI50 [15]: 668 nM | TGI [15]: 1860 nM | GI50 [16]: 259 nM | TGI [16]: 866 nM | GI50 [17]: 127 nM | TGI [17]: 851 nM | GI50 [18]: 223 nM | TGI [18]: 1430 nM | GI50 [19]: 47.3 nM | TGI [19]: 206 nM | GI50 [20]: 117 nM | TGI [20]: 310 nM | GI50 [21]: 171 nM | TGI [21]: 315 nM | GI50 [22]: 449 nM | TGI [22]: 3730 nM | GI50 [23]: 416 nM | TGI [23]: > 100000 nM | GI50 [24]: 193 nM | TGI [24]: 435 nM | GI50 [25]: 118 nM | TGI [25]: 287 nM | GI50 [26]: 459 nM | TGI [26]: 4980 nM | GI50 [27]: 522 nM | TGI [27]: > 100000 nM | GI50 [28]: 514 nM | TGI [28]: 1830 nM | GI50 [29]: 403 nM | TGI [29]: 1750 nM | GI50 [30]: 152 nM | TGI [30]: 290 nM | GI50 [31]: 137 nM | TGI [31]: 390 nM | GI50 [32]: 371 nM | TGI [32]: 3960 nM | GI50 [33]: 416 nM | TGI [33]: 1450 nM | GI50 [34]: 274 nM | TGI [34]: 971 nM | GI50 [35]: 26.2 nM | TGI [35]: 142 nM | GI50 [36]: 261 nM | TGI [36]: 1620 nM | GI50 [37]: 94.8 nM | TGI [37]: 321 nM | GI50 [38]: 246 nM | TGI [38]: 1180 nM | GI50 [39]: 28.9 nM | TGI [39]: 107 nM | GI50 [40]: 325 nM | TGI [40]: > 100000 nM | GI50 [41]: 1660 nM | TGI [41]: > 100000 nM | GI50 [42]: 335 nM | TGI [42]: 1150 nM | GI50 [43]: 229 nM | TGI [43]: 1040 nM | GI50 [44]: 304 nM | TGI [44]: 1850 nM | GI50 [45]: 3250 nM | TGI [45]: > 100000 nM

Nc1nc(Cl)nc2c1ncn2C1OC(CO)C(O)C1F (stereo unspecified)
GI50 [1]: 97.5 nM | GI50 [2]: 324 nM | TGI [2]: > 23100 nM | GI50 [3]: 176 nM | TGI [3]: > 100000 nM | GI50 [46]: 122 nM | TGI [46]: 427 nM | GI50 [4]: 77.4 nM | TGI [4]: 483 nM | GI50 [5]: 91.5 nM | GI50 [6]: 15.7 nM | TGI [6]: 29.7 nM | GI50 [47]: 277 nM | GI50 [48]: 914 nM | GI50 [7]: 34.6 nM | TGI [7]: > 100000 nM | GI50 [49]: 57.6 nM | TGI [49]: > 100000 nM | GI50 [8]: 202 nM | TGI [8]: > 100000 nM | GI50 [9]: 20.5 nM | TGI [9]: 36.8 nM | GI50 [50]: 41.9 nM | TGI [50]: 150 nM | GI50 [10]: 301 nM | TGI [10]: > 100000 nM | GI50 [51]: 430 nM | TGI [51]: > 22800 nM | GI50 [11]: 510 nM | TGI [11]: > 100000 nM | GI50 [12]: 419 nM | TGI [12]: > 100000 nM | GI50 [13]: 80.4 nM | TGI [13]: > 100000 nM | GI50 [14]: 323 nM | TGI [14]: > 100000 nM | GI50 [15]: 306 nM | TGI [15]: 880 nM | GI50 [16]: 74.8 nM | TGI [16]: 290 nM | GI50 [17]: 375 nM | TGI [17]: > 100000 nM | GI50 [18]: 200 nM | TGI [18]: > 100000 nM | GI50 [52]: 346 nM | TGI [52]: > 100000 nM | GI50 [19]: 261 nM | TGI [19]: > 100000 nM | GI50 [20]: 253 nM | TGI [20]: 699 nM | GI50 [21]: 14.8 nM | TGI [21]: 28.3 nM | GI50 [22]: 775 nM | TGI [22]: 3580 nM | GI50 [53]: 37.7 nM | TGI [53]: 114 nM | GI50 [23]: 1850 nM | TGI [23]: > 100000 nM | GI50 [24]: 177 nM | TGI [24]: 376 nM | GI50 [25]: 165 nM | TGI [25]: > 28900 nM | GI50 [54]: 35.7 nM | TGI [54]: 1240 nM | GI50 [55]: 550 nM | TGI [55]: > 100000 nM | GI50 [26]: > 100000 nM | TGI [26]: > 100000 nM | GI50 [27]: 515 nM | TGI [27]: > 100000 nM | GI50 [28]: 31.5 nM | TGI [28]: > 100000 nM | GI50 [29]: > 20900 nM | TGI [29]: > 100000 nM | GI50 [30]: 1730 nM | TGI [30]: 3780 nM | GI50 [31]: 7360 nM | TGI [31]: > 100000 nM | GI50 [32]: 170 nM | TGI [32]: 692 nM | GI50 [33]: 724 nM | TGI [33]: 1610 nM | GI50 [34]: 612 nM | TGI [34]: 1820 nM | GI50 [35]: 304 nM | TGI [35]: 697 nM | GI50 [36]: 106 nM | TGI [36]: > 100000 nM | GI50 [37]: 61.6 nM | TGI [37]: 160 nM | GI50 [38]: 315 nM | TGI [38]: > 100000 nM | GI50 [56]: 56.1 nM | TGI [56]: 401 nM | GI50 [57]: 72.6 nM | GI50 [58]: 1260 nM | TGI [58]: 7990 nM | GI50 [39]: 212 nM | TGI [39]: 380 nM | GI50 [59]: 401 nM | TGI [59]: > 100000 nM | GI50 [40]: 2850 nM | TGI [40]: > 100000 nM | GI50 [41]: 532 nM | TGI [41]: > 100000 nM | GI50 [42]: 259 nM | TGI [42]: 2700 nM | GI50 [43]: 412 nM | GI50 [44]: 208 nM | TGI [44]: 476 nM | GI50 [45]: 234 nM
